In patent publication US20220133842A1 (priority 2019, published 2022):
pIC50: −log10 of the molar value. Values joined by “and” are separate entries in the source; they are usually repeats but may differ in a detail not shown here. Equal values may be shown once.

Legend:
[1] = tested on: Acinetobacter baumannii (CIP 110431); type: cell-based
[2] = tested on: Citrobacter farmeri (ATCC 51633); type: cell-based
[3] = tested on: Citrobacter rodentium (ATCC 51116); type: cell-based
[4] = tested on: Escherichia coli (ATCC 8739); type: cell-based
[5] = tested on: Klebsiella pneumoniae (DSMZ 26371); type: cell-based
[6] = tested on: Klebsiella variicola (DSM 15968); type: cell-based
[7] = tested on: Pseudomonas aeruginosa (CIP 107398); type: cell-based
[8] = tested on: Salmonella enterica (CIP 80.39); type: cell-based
[9] = tested on: Shigella flexneri (ATCC 12022); type: cell-based
[10] = tested on: Bacteroides thetaioataomicron (DSM 2255); test: microbe, parasite or virus in culture; type: cell-based
[11] = tested on: Helicobacter pylori (ATCC 43504); test: microbe, parasite or virus in culture; type: cell-based
[12] = tested on: Arthrobacter gandavensis (DSM 2447); type: cell-based
Bacillus cereus (DSM 31) = type: cell-based
[13] = tested on: Bacillus subtilis (DSM 347); type: cell-based
[14] = tested on: Lactococcus lactis (DSM 20481); type: cell-based
[15] = tested on: Listeria monocytogenes (DSM 20600); type: cell-based
[16] = tested on: Micrococcus luteus (DSM 20030); type: cell-based
[17] = tested on: Staphylococcus aureus MRSA USA300 (ATCC BAA-1717); type: cell-based
[18] = tested on: Staphylococcus aureus (ATCC 6538P); type: cell-based
[19] = tested on: Clostridium botulinum (DSM 1985); test: microbe, parasite or virus in culture; type: cell-based
[20] = tested on: Clostridium coccoides (DSM 935); test: microbe, parasite or virus in culture; type: cell-based
[21] = tested on: Clostridium difficile (DSM 1296); test: microbe, parasite or virus in culture; type: cell-based
[22] = tested on: Clostridium nexile (DSM 1787); test: microbe, parasite or virus in culture; type: cell-based
[23] = tested on: Clostridium propionicum (DSM 6251); test: microbe, parasite or virus in culture; type: cell-based
[24] = tested on: Enterococcus faecalis (DSM 13591); test: microbe, parasite or virus in culture; type: cell-based
[25] = tested on: Lactobacillus acidophilus (DSM 20079); test: microbe, parasite or virus in culture; type: cell-based
[26] = tested on: Propionibacterium acnes (ATCC 6919); test: microbe, parasite or virus in culture; type: cell-based
[27] = tested on: Streptococcus pyogenes (DSM 20565); test: microbe, parasite or virus in culture; type: cell-based
[28] = tested on: Streptococcus thermophilus (ATCC LMD-9); test: microbe, parasite or virus in culture; type: cell-based
[29] = tested on: Mycobacterium smegmatis (ATCC 700084); type: cell-based
[30] = tested on: Aspergillus flavus (DSM 1959); type: cell-based
[31] = tested on: Aspergillus niger (ATCC 9142); type: cell-based
[32] = tested on: Aspergillus ochraceus (DSM 824); type: cell-based
[33] = tested on: Candida albicans (DSM 10697); type: cell-based
[34] = tested on: Fusarium graminearum (DSM 1095); type: cell-based
[35] = tested on: Fusarium oxysporum (DSM 62316); type: cell-based
[36] = tested on: Fusarium verticillioides (DSM 62264); type: cell-based
[37] = tested on: Penicillium verrucosum (DSM 12639); type: cell-based
[38] = tested on: clinical strains of Clostridium perfringens isolated from human patients or animals; type: cell-based
[39] = tested on: Clostridium perfringens strain (ATCC 13124) and clinical strains of Clostridium perfringens; type: cell-based
[40] = tested on: Clostridium perfringens (ATCC13124); type: cell-based
[41] = tested on: Caco-2 cells (ATCC HTB-37); test: cells; type: cell-based, human; conditions: read-out: IC50 (concentration causing 50% cell death)
T84 cells (ATCC CCL-248) = test: cells; type: cell-based, human; conditions: read-out: IC50 (concentration causing 50% cell death)
IPEC-J2 cells = test: cells; type: cell-based, pig; conditions: read-out: IC50 (concentration causing 50% cell death)
[42] = tested on: Clostridium perfringens (ATCC 13124); type: cell-based
[43] = tested on: Clostridium perfringens (ATCC 13124); type: cell-based; remark: listed apart in the source
[44] = tested on: Clostridium perfringens (ATCC 13124)
[45] = tested on: human (Caco-2 and T84) and pig (IPEC-J2) intestinal cells

Question: Which MIC [1] does the source give for Destruxin B here?
Answer: The MIC was >100 µM.

Question: What about the MIC [2] of the same substance?
Answer: The MIC was >100 µM.

Question: What about the MIC [3] of the same substance?
Answer: The MIC was >100 µM.

Question: And the MIC [4]?
Answer: Its MIC is >100 µM.

Question: What about the MIC [5] of the same substance?
Answer: Its MIC is >100 µM.

Question: And the MIC [6]?
Answer: The MIC was >100 µM.

Question: What about the MIC [7] of the same substance?
Answer: Its MIC is >100 µM.

Question: And the MIC [8]?
Answer: Its MIC is >100 µM.

Question: What about the MIC [9] of the same substance?
Answer: Its MIC is >100 µM.

Question: What about the MIC [10] of the same substance?
Answer: The MIC was >100 µM.

Question: And the MIC [11]?
Answer: The MIC was >100 µM.

Question: What about the MIC [12] of the same substance?
Answer: The MIC was >100 µM.

Question: What about the MIC (Bacillus cereus (DSM 31)) of the same substance?
Answer: The MIC was >100 µM.

Question: And the MIC [13]?
Answer: Its MIC is >100 µM.

Question: What about the MIC [14] of the same substance?
Answer: The MIC was >100 µM.

Question: What about the MIC [15] of the same substance?
Answer: Its MIC is >100 µM.

Question: And the MIC [16]?
Answer: Its MIC is >100 µM.

Question: What about the MIC [17] of the same substance?
Answer: The MIC was >100 µM.

Question: And the MIC [18]?
Answer: Its MIC is >100 µM.

Question: What about the MIC [19] of the same substance?
Answer: The MIC was >100 µM.

Question: And the MIC [20]?
Answer: Its MIC is >100 µM.

Question: What about the MIC [21] of the same substance?
Answer: The MIC was >100 µM.

Question: What about the MIC [22] of the same substance?
Answer: The MIC was >100 µM.

Question: What about the MIC [23] of the same substance?
Answer: Its MIC is >100 µM.

Question: What about the MIC [24] of the same substance?
Answer: The MIC was >100 µM.

Question: And the MIC [25]?
Answer: The MIC was >100 µM.

Question: What about the MIC [26] of the same substance?
Answer: Its MIC is >100 µM.

Question: And the MIC [27]?
Answer: Its MIC is >100 µM.

Question: And the MIC [28]?
Answer: Its MIC is >100 µM.

Question: And the MIC [29]?
Answer: The MIC was >100 µM.

Question: What about the MIC [30] of the same substance?
Answer: The MIC was >100 µM.

Question: What about the MIC [31] of the same substance?
Answer: The MIC was >100 µM.

Question: And the MIC [32]?
Answer: The MIC was >100 µM.

Question: What about the MIC [33] of the same substance?
Answer: Its MIC is >100 µM.

Question: What about the MIC [34] of the same substance?
Answer: Its MIC is >100 µM.

Question: What about the MIC [35] of the same substance?
Answer: Its MIC is >100 µM.

Question: What about the MIC [36] of the same substance?
Answer: The MIC was >100 µM.

Question: And the MIC [37]?
Answer: Its MIC is >100 µM.

Question: And the MIC [38]?
Answer: The MIC was 3 µM and 1.5 µM.

Question: And the “minimum bactericidal concentrations (BMC values)” value [39]?
Answer: The value was “identical to the MIC values”.

Question: And the “change of MIC during exposure” value [40]?
Answer: Its value is “do not change or change only slightly”.

Question: What about the pIC50 [41] of the same substance?
Answer: The pIC50 was < 4.00.

Question: And the pIC50 (T84 cells (ATCC CCL-248))?
Answer: Its pIC50 is < 4.00.

Question: What about the pIC50 (IPEC-J2 cells) of the same substance?
Answer: The pIC50 was < 4.00.

Question: What about the “permeabilisation of the bacterial membrane” value [42] of the same substance?
Answer: The value was “no permeabilisation”.

Question: And the “morphological phenotype (mechanism of action)” value [43]?
Answer: The value was “hypercondensation of bacterial DNA”.

Question: What about the “MIC (mg/L)” value [44] of the same substance?
Answer: Its value is 1.78 mg/L.

Question: And the “toxicity to intestinal cells” value [45]?
Answer: The value was “not toxic”.
